Results as given in US11834453B2, “Substituted pyrimido[5,4-d]pyrimidines as HER2 inhibitors” (Array BioPharma Inc., priority 2020, dated 2023).
Like-named read-outs stand apart in the source and are kept apart here.

Columns and labels:
[1] = molecular target: ErbB2 insYVMA (HER2-YVMA, SEQ ID NO: 2) (Homo sapiens, UniProt P04626, INS775YVMA/P1170A); experiment: biochemical; details: ErbB2 insYVMA enzyme assay
ErbB2 WT = ErbB2 WT (Homo sapiens (Human), UniProt P04626); experiment: ErbB enzyme assay (CisBio HTRF KinEASE-TK), Assay 2; assay type: biochemical
ErbB2 WT, sequence (P04626 23-1255): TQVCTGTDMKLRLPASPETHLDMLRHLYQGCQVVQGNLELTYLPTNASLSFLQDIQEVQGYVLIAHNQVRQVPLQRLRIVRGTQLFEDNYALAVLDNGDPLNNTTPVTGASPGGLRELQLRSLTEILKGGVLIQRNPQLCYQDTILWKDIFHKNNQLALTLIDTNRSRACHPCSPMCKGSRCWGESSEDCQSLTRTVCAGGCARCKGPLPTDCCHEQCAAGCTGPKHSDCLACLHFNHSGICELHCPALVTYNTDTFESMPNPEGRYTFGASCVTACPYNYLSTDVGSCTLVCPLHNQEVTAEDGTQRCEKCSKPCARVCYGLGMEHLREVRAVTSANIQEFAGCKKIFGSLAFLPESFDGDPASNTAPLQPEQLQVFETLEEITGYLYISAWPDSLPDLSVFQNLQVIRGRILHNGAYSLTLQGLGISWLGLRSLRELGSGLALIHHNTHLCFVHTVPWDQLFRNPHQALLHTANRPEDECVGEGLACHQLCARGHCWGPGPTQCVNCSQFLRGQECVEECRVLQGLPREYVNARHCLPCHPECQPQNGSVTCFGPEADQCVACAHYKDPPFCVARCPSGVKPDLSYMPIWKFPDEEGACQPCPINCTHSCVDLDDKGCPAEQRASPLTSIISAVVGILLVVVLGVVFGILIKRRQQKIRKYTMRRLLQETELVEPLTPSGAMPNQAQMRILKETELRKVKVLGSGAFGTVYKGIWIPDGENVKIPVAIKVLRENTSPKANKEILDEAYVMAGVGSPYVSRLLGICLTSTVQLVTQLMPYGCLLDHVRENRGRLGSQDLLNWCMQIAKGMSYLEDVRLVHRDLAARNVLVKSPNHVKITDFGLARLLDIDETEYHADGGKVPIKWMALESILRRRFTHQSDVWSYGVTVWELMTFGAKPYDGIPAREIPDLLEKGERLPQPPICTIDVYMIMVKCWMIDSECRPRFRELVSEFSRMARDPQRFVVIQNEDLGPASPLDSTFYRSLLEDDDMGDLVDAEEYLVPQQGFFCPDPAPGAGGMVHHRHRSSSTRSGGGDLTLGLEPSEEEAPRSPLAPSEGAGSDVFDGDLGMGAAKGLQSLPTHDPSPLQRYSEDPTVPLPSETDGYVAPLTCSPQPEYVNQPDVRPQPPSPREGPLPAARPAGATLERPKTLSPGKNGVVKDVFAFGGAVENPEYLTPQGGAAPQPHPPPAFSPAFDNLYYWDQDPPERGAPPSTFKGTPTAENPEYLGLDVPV
How it was run: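 ErbB2 phosphorylates 250 nM biotin-TK substrate at 1 mM ATP in 25 mM HEPES pH 7.4, 10 mM MgCl2, 0.01% Triton X-100 and 2% DMSO, for 30 min at 22 °C. Product is detected by HTRF with Sa-XL665 and TK-Ab-Cryptate. Percent of control is set by DMSO-only wells and pre-quenched wells.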

EGFR = EGFR (Homo sapiens (Human), UniProt P00533); experiment: ErbB enzyme assay (CisBio HTRF KinEASE-TK), Assay 3; assay type: biochemical
EGFR, sequence (P00533 25-1210): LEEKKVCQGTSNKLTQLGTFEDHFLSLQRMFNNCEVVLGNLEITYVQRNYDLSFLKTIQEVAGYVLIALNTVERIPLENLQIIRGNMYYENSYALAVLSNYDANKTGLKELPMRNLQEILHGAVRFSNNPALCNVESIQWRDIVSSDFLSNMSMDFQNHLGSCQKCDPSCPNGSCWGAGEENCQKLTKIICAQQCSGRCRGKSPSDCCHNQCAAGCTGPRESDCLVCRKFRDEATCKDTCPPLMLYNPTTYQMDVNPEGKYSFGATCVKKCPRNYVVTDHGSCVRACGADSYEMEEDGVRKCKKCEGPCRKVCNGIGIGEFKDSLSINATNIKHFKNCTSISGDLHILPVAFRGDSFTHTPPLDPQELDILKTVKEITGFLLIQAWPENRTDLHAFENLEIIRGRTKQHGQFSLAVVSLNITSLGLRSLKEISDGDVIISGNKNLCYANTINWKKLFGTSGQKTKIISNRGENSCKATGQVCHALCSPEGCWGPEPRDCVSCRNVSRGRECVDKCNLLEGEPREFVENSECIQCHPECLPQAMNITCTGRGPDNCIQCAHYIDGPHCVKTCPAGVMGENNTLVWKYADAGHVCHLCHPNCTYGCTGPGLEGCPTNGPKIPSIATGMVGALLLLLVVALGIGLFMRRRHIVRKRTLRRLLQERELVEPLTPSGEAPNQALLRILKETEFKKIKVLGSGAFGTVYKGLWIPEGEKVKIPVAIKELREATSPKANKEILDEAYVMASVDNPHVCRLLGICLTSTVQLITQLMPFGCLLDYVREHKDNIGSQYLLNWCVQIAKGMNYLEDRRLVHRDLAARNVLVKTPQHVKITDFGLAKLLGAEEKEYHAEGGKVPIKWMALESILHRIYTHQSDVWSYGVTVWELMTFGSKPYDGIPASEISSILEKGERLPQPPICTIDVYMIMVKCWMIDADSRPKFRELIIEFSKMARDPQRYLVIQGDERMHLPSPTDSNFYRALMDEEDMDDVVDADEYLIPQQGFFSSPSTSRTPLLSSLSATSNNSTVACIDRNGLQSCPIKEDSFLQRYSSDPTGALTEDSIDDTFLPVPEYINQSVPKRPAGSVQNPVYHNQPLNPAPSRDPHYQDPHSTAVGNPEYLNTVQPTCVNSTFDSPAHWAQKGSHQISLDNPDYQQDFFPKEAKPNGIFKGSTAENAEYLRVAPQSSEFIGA
How it was run: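 Kinase + 250 nM biotin TK-substrate, 1 mM ATP, cpd (3-fold dil.), HEPES pH 7.4/10 mM MgCl2/0.01% Triton/2% DMSO; 30 min 22 °C. Quench w/ Sa-XL665 + TK-Ab-Cryptate, 1 h, HTRF. IC50 = 50 POC on 4PL fit.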

[2] = molecular target: ErbB2 with Exon 20 YVMA insertion (HER2-YVMA) (Homo sapiens (Human), UniProt P04626, INS775YVMA); experiment: Cellular phosphorylation assay, constitutive ErbB2 phosphorylation (Y1196) in engineered NIH 3T3 cells, Assay 4; assay type: cell-based
How it was run: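 Engineered NIH 3T3 cells expressing HER2-YVMA treated with compounds 1 h at 37 °C, then formaldehyde-fixed and methanol-permeabilized. pErbB2 Y1196 detected by in-cell infrared immunofluorescence, normalized to GAPDH. IC50 from the normalized curves.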

EGFR wild type (EGFR WT) = EGFR wild type (EGFR WT) (Homo sapiens (Human), UniProt P00533); experiment: Cellular phosphorylation assay, EGF-stimulated EGFR phosphorylation in engineered NIH 3T3 cells, Phospho-EGFR DuoSet IC ELISA, Assay 5; assay type: cell-based
EGFR wild type (EGFR WT), sequence (P00533 25-1210): as above
How it was run: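 NIH 3T3 cells expressing EGFR WT (20,000/well, attached overnight) were exposed to serially diluted compound for 1 h at 37 °C, then stimulated with 100 ng/ml rEGF for 10 min. Phospho-EGFR in lysates measured by sandwich ELISA optical density; IC50 from curves.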

ErbB2 insYVMA (HER2-YVMA, SEQ ID NO: 2), sequence (P04626 with tags, fused parts or gaps INS775YVMA/P1170A limits assumed): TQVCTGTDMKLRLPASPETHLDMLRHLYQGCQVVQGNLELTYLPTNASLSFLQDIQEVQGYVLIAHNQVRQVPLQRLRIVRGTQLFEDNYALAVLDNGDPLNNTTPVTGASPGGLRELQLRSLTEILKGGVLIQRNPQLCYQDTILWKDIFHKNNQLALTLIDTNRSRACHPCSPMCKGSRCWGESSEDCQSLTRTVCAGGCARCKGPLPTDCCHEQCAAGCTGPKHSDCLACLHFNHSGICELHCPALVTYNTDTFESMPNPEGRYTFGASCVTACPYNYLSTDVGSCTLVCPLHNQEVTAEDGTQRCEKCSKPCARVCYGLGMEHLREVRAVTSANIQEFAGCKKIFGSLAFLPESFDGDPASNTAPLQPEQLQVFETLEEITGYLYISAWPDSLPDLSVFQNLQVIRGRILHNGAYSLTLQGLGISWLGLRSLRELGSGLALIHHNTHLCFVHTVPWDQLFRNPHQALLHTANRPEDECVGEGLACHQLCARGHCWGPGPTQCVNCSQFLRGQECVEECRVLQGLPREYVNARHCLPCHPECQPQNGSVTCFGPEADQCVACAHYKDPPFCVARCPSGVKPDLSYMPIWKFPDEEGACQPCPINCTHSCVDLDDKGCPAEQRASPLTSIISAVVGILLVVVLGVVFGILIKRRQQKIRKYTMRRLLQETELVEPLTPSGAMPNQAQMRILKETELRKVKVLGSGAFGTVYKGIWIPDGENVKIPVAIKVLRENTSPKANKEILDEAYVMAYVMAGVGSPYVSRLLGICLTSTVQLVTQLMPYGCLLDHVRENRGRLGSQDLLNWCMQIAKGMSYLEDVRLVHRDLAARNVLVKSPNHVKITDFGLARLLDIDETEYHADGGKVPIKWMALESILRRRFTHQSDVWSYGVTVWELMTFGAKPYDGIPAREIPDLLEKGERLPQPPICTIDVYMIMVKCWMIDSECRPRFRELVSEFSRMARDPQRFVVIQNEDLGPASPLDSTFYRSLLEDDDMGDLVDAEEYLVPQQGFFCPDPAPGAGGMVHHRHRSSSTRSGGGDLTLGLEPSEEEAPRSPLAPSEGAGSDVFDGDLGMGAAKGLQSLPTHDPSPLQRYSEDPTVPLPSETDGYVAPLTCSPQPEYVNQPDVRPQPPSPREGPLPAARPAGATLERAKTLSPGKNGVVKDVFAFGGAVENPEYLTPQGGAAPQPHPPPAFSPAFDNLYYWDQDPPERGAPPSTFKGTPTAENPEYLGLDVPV

SMILES | IC50 ([1]; Assay 1 IC50 (nM)) [nM] | IC50 (ErbB2 WT) [nM] | IC50 (EGFR) [nM] | IC50 [2] [nM] | IC50 (EGFR wild type (EGFR WT)) [nM] | IC50 ([1]; read-out: Assay 1 IC50) [nM]
Cn1cnc2cc(Oc3ccc(Nc4ncnc5cnc(N6CC7(CCOC7)C6)nc45)cc3Cl)ccc21 [Example 442] | 69.5 | 180 | ≥ 10000 | 105 | ≥ 5000 | 
CN(CC(C)(C)O)c1ncc2ncnc(Nc3ccc(Oc4ccn5ncnc5c4)c(Cl)c3)c2n1 [Example 405] |  | 30.3 | 4690 | 106 | ≥ 5000 | 15.7
Cc1cc(Nc2ncnc3cnc(N(C)[C@H]4CCCOC4)nc23)ccc1Oc1ccn2ncnc2c1 [Example 349] |  | 24 | 1290 | 116 | ≥ 5000 | 18.9
Cn1cnc2cc(Oc3ccc(Nc4ncnc5cnc(N6CCN(CC(F)F)CC6)nc45)cc3Cl)ccc21 [Example 484] |  | 124 | ≥ 10000 | 22.7 | ≥ 5000 | 34.4
Cc1cc(Nc2ncnc3cnc(O[C@H]4CN(C)C[C@H]4F)nc23)ccc1Oc1ccc2c(c1)ncn2C [Example 287] |  | 118 | ≥ 10000 | 60.9 | ≥ 5000 | 42.9
Cc1cc(Nc2ncnc3cnc(NC4CC4)nc23)ccc1Oc1ccc2c(c1)ncn2C [Example 270] |  | 22.2 | ≥ 10000 | 3.1 | ≥ 5000 | 10.9
Clc1cc(Nc2ncnc3cnc(N4CCO[C@H]5C[C@H]54)nc23)ccc1Oc1ccn2ncnc2c1 [Example 384] |  | 43 | 4310 | 91.5 | ≥ 5000 | 13.6
Cc1cc(Nc2ncnc3cnc(N4CCN(C)S4(=O)=O)nc23)ccc1Oc1ccc2c(c1)ncn2C [Example 29, 2-methyl-5-(8-((3-methyl-4-((1-methyl-1H-benzo[d]imidazol-5-yl)oxy)phenyl)amino)pyrimido[5,4-d]pyrimidin-2-yl)-1,2,5-thiadiazolidine 1,1-dioxide] |  | 65.9 | ≥ 10000 | 20.6 | ≥ 5000 | 37.8
Cc1cc(Nc2ncnc3cnc(O[C@H]4CNCC[C@H]4F)nc23)ccc1Oc1ccc2c(c1)ncn2C [Example 290] |  | 601 | ≥ 10000 | 83.5 | ≥ 5000 | 92.5
Cc1cc(Nc2ncnc3cnc(N4C[C@@H](O)C(C)(C)C4)nc23)ccc1Oc1ccc2c(c1)ncn2C [Example 468] |  | 130 | ≥ 10000 | 87.2 | ≥ 5000 | 39.1
Cc1cc(Nc2ncnc3cnc(N4CC[C@H](OC(F)F)C4)nc23)ccc1Oc1ccn2ncnc2c1 [Example 361] |  | 39.2 | 7480 | 312 | ≥ 5000 | 26.4
Cc1cc(Nc2ncnc3cnc(N4C[C@@H]5[C@H](C4)[C@@H]4CC[C@H]5O4)nc23)ccc1Oc1ccc2c(c1)ncn2C [Example 363] |  | 72.4 | ≥ 10000 | 26.2 | ≥ 5000 | 26.1
O[C@@H]1[C@@H]2CC[C@H]1CN(c1ncc3ncnc(Nc4ccc(Oc5ccn6ncnc6c5)c(Cl)c4)c3n1)C2 [Example 341] |  | 20.7 | 1740 | 43.1 | ≥ 5000 | 12.7
O[C@H]1[C@@H]2C[C@H]1CN(c1ncc3ncnc(Nc4ccc(Oc5ccn6ncnc6c5)c(Cl)c4)c3n1)C2 [Example 336] |  | 130 | ≥ 10000 | 2260 | ≥ 5000 | 54
Cc1cc(Nc2ncnc3cnc(N4C5CCC4COC5)nc23)ccc1Oc1ccn2ncnc2c1 [Example 419] |  | 196 | ≥ 10000 | 538 | ≥ 5000 | 110
OC1(CNc2ncc3ncnc(Nc4ccc(Oc5ccn6ncnc6c5)c(Cl)c4)c3n2)COC1 [Example 326] |  | 32.6 | 2340 | 32.1 | ≥ 5000 | 14.4
Cn1cnc2cc(Oc3ccc(Nc4ncnc5cnc(N6C[C@@H]7C[C@H]6C[C@H]7O)nc45)cc3Cl)ccc21 [Example 492] |  | 37.8 | 4730 | 37.2 | ≥ 5000 | 24.7
Cc1cc(Nc2ncnc3cnc(N(C)[C@H]4C[C@@H](C(C)(C)O)C4)nc23)ccc1Oc1ccc2c(c1)ncn2C [Example 467] |  | 34.5 | 4790 | 19.4 | ≥ 5000 | 26.4
Cc1cc(Nc2ncnc3cnc(N4CC[C@]5(CCO5)C4)nc23)ccc1Oc1ccc2c(c1)ncn2C [Example 375] |  | 34 | ≥ 10000 | 14.9 | ≥ 5000 | 22.8
Cc1c(Oc2ccn3ncnc3c2)ccc(Nc2ncnc3cnc(N(C)CC4(O)CCC4)nc23)c1F [Example 315] |  | 64.8 | 3690 | 1490 | ≥ 5000 | 39.3
Cn1cnc2cc(Oc3ccc(Nc4ncnc5cnc(N6C7CCC6COC7)nc45)cc3Cl)ccc21 [Example 441] | 106 | 67.2 | 9570 | 89.1 | ≥ 5000 | 
Clc1cc(Nc2ncnc3cnc(N4CCC4)nc23)ccc1Oc1ccn2ncnc2c1 [Example 112, N-(4-([1,2,4]triazolo[1,5-a]pyridin-7-yloxy)-3-chlorophenyl)-6-(azetidin-1-yl)pyrimido[5,4-d]pyrimidin-4-amine] |  | 44.1 | ≥ 10000 | 190 | ≥ 5000 | 18.7
Cc1cc(Nc2ncnc3cnc(N4CC5(C4)CC5(F)F)nc23)ccc1Oc1ccc2c(c1)ncn2C [Example 300] |  | 284 | ≥ 10000 | 30.7 | ≥ 5000 | 75.5
CON(C)CCNc1ncc2ncnc(Nc3ccc(Oc4ccc5c(c4)ncn5C)c(C)c3)c2n1 [Example 219, N2-(2-(methoxy(methyl)amino)ethyl)-N8-(3-methyl-4-((1-methyl-1H-benzo[d]imidazol-5-yl)oxy)phenyl)pyrimido[5,4-d]pyrimidine-2,8-diamine] |  | 27.6 | 2110 | 6.2 | ≥ 5000 | 14.8
CON1CCN(c2ncc3ncnc(Nc4ccc(Oc5ccc6c(c5)ncn6C)c(C)c4Cl)c3n2)CC1 [Example 98, N-(2-chloro-3-methyl-4-((1-methyl-1H-benzo[d]imidazol-5-yl)oxy)phenyl)-6-(4-methoxypiperazin-1-yl)pyrimido[5,4-d]pyrimidin-4-amine] |  | 1950 | ≥ 10000 | 266 | ≥ 5000 | 232
Cc1cc(Nc2ncnc3cnc(O[C@H]4C[C@@H](F)CN(C)C4)nc23)ccc1Oc1ccc2c(c1)ncn2C [Example 302] |  | 391 | ≥ 10000 | 141 | ≥ 5000 | 65.9
Clc1cc(Nc2ncnc3cnc(N4C[C@@H]5C[C@H]4CO5)nc23)ccc1Oc1ccn2ncnc2c1 [Example 426] |  | 16.2 | 4210 | 112 | ≥ 5000 | 16.2
